In ChEMBL document CHEMBL3638798, “Metastin derivative and use thereof” (2013):

Target: KiSS-1 receptor (Homo sapiens, UniProt Q969F8)
Test: Binding Assay: Binding inhibition assay using human GPR54.

Chain of KiSS-1 receptor (Q969F8 whole entry): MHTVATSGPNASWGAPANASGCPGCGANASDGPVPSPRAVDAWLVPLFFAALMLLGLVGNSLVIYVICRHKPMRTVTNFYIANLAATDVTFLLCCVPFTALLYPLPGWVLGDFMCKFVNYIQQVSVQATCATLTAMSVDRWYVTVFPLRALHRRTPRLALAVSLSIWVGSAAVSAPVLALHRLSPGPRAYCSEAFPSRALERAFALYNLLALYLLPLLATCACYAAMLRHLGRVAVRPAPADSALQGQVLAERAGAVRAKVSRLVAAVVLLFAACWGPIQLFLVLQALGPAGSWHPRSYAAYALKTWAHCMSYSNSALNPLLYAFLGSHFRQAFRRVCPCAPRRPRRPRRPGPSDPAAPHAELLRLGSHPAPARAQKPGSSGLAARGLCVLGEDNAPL

CNCC(=O)N[C@@H](CC(C)C)C(C)=O
IC50: 0.71 nM
